Key:
[1] = cited from earlier work
PTP1B = molecular target: T1, PTP1B (Homo sapiens, UniProt P18031); experiment: pNPP hydrolysis by PTP1B; format: biochemical; details: for IC50: substrate pNPP
T1 construct: made in house
T1 sequence (P18031 1-435): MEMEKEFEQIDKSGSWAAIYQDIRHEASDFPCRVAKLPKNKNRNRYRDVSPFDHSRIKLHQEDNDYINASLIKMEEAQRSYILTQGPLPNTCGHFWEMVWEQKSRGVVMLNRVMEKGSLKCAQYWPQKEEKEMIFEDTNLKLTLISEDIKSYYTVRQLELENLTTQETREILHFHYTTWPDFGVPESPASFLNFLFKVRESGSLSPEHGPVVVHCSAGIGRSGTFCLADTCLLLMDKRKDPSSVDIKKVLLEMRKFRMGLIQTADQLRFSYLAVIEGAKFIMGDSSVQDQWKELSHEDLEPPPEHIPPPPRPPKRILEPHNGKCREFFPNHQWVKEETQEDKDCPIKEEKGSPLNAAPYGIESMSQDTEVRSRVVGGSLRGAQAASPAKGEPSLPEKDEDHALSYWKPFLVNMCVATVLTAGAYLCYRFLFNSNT
Experimental: The catalytic domain of human Eyes Absent 2 was similarly sub-cloned as a poly-histidine fusion construct in the vector pDEST-527. Fusion protein was purified by Ni-NTA chromatography and followed by size-exclusion chromatography over a Superdex-75 column. The relative purity of protein samples was determined using SDS-PAGE. PTP1B was purified as described previously.
(§1) Compounds were dissolved in DMSO and diluted as needed. […] Reactions were incubated at 30°C for 30 minutes and quenched with 100 mM EDTA pH 10. IC50 values were then calculated directly from regression curves using PRISM. All reported values are the mean of two independent experiments.

Eya3(ED) = molecular target: T2, Eya3(ED) (Mus musculus, UniProt P97480); experiment: pNPP hydrolysis by the catalytic domain of Eya3; format: biochemical; details: substrate pNPP 3.4 mM, pH 6, 30°C, 30 minutes
T2 construct: The catalytic domain (ED) of mouse Eyes Absent 3 (Eya3(223–510)) was purified; made in house
T2 sequence (P97480 223-510): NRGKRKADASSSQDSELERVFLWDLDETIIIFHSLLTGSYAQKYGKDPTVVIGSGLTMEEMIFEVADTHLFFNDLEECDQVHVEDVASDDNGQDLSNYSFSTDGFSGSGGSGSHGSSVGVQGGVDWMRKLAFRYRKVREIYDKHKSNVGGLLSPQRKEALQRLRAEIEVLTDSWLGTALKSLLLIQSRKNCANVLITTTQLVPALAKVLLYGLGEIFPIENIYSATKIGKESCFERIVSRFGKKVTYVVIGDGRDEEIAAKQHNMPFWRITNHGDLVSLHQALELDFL
Text: (§2) The catalytic domain (ED) of mouse Eyes Absent 3 (Eya3(223–510)) was purified as described before. Human Eyes Absent 3 isoform 2 (representing the major species identified in human cell lines by mass spectrometry and residues 127–573 of NM_001990, isoform 1) was sub-cloned into pDEST565 to express a poly-histidine- Glutathione-S-transferase (His-GST) tagged fusion protein with a TVMV protease site. The protein was purified by glutathione-S-transferase affinity chromatography followed by TVMV cleavage, Ni-NTA chromatography, and finally size exclusion chromatography.
The NCI Diversity Set II was obtained from the NCI in 96-well trays from the NIH Molecular Libraries Program and stored as 10 mM stocks in DMSO. An initial manual screen was conducted using the previously described p-nitrophenylphosphate assay and mouse Eya3(223–510) in a reaction mixture containing 20 mM MES pH 6, 2 mM MgCl2, 125 μM inhibitor, 3.4 mM para-nitrophenol phosphate (pNPP) and 0.01 μg/µL enzyme.
as §1

human EYA3 = molecular target: T3, human EYA3 (Homo sapiens, UniProt Q99504); experiment: pNPP hydrolysis by full-length EYA3; format: biochemical; details: full-length human EYA3, substrate pNPP
T3 construct: residues 127–573 of NM_001990, isoform 1; His-GST (poly-histidine, glutathione-S-transferase) with TVMV protease site (cleaved yes); made in house
T3 sequence (Q99504 127-573): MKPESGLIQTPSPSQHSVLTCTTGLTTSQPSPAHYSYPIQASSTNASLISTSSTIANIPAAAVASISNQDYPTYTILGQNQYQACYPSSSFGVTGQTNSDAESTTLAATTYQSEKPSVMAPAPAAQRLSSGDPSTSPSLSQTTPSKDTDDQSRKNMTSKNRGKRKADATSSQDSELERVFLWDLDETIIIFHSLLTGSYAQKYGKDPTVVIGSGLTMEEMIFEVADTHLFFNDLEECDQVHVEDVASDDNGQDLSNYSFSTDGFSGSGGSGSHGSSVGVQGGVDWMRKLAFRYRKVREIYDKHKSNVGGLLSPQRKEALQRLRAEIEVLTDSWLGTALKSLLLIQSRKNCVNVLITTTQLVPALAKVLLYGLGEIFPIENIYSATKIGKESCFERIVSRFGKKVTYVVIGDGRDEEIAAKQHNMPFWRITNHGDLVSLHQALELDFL
Text: as §2, with “chromatography. […]” for “chromatography.”
as §1

HUVECs [2] = experiment: HUVEC transwell migration; format: cell-based, human; details: 5 μM
Experimental: (§3) Human umbilical vein endothelial cells (HUVECs) were purchased from Lonza (Walkersville, MD) and maintained in the endothelial cell growth medium (PromoCell, Heidelberg, Germany), under a 5% CO2 atmosphere. MCF10A cells from ATCC were stably transfected with either pcDNA 3.2/V5-DEST (vector control), V5-EYA2 or V5-EYA2(mut). Transwell migration experiments were performed as previously described.

MCF10A-EYA2 cells = experiment: Transwell migration of MCF10A cells over-expressing EYA2; format: cell-based; details: 7.5 μM
Experimental: as §3

HUVECs [3] = experiment: HUVEC tubulogenesis assay on Matrigel; format: cell-based, human; details: up to 7.5 μM
Experimental: Tubulogenesis assays were performed in 15-well micro-slide (ibidi LLC, Verona WI), using growth factor-reduced matrigel (BD Bioscience, Billerica, MA). The matrix was prepared by loading 10 μl of matrigel in each micro-slide well and allowing it to solidify for 30 minutes at 37°C. HUVECs were trypsinized and resuspended at 100,000 cell/ml in EBM +2.5% FBS. 50 μl (5,000 cell) were loaded on top of the solidified matrigel and the preparation was incubated for 20 hours at 37°C in a humidified incubator in a 5% CO2 atmosphere. Bright field images were taken using an inverted microscope at 2.5× magnification, which allowed imaging of the whole well in two pictures that were later merged in Photoshop. Tubular structures were traced and counted using NeuroJ (NIH, USA). In experiments with inhibitor, the inhibitor was added to the cell suspension before loading. Each sample was loaded in triplicate, and each treatment was repeated for reproducibility.

mouse aortic rings = experiment: Mouse aortic ring assay (ex vivo sprouting angiogenesis, VEGF-stimulated); details: 5 μM, 10 days
Experimental: The preparation of rat collagen and the aortic ring assay were carried out as previously described, [50]. Mice were 4 to 6 week old female C57BL/6, and aortic ring explants were cultured at 37°C in a humidified incubator under a 5% CO2 atmosphere.
Each inhibitor was serially diluted (between 0.25 mM and 7.5 mM) to stocks of 1000× the working concentrations in sterile 100% DMSO in order to achieve an equal final concentration of DMSO (0.1% v/v) in all culture conditions. For the experiments, the compounds were diluted in EBM containing 2.5% FBS, penicillin/streptomycin and 20 ng/ml VEGF165 (R&D Systems, Minneapolis, MN). Each compound was applied from the first day of culture over a 10-day period with medium change every two days. In all experiments, the vehicle (DMSO, 0.1%) was used as control. The sprouting density was derived from counting the number of branches per ring, and the extent of angiogenic sprouting was estimated by measuring the total surface area covered by the vessels.

zebrafish embryos = experiment: Analysis of zebrafish vasculature, Tg(kdrl:EGFP) embryos; format: in vivo; details: exposure from about 5 hpf, analysis at 28–30 hpf
Experimental: Tg(kdrl:EGFP)^s843 zebrafish line was used for vascular analysis. Embryos were maintained in fish water until the 50% epiboly stage (5.25 hpf) and were transferred into wells of 24-well plate containing the inhibitors in fish water. All incubation was performed at 28.5°C. The analysis for vascular defects was performed at the 28–30 hpf stages, and embryos were imaged using a fluorescence microscope.

IC50 (PTP1B) [µM] | IC50 (Eya3(ED)) [µM] | IC50 (human EYA3) [µM] | selectivity EYA3 versus PTP1B, in words (PTP1B; pNPP hydrolysis) | Structure (SMILES) | half-life [1] [h] | effect on HUVEC cell motility (HUVECs [2]) | effect on migration of MCF10A(EYA2) cells (MCF10A-EYA2 cells) | effect on tubulogenesis, in words (HUVECs [3]) | effect on sprouting of aortic rings (mouse aortic rings) | effect on the developing vasculature (zebrafish embryos)
 |  |  |  | CCc1oc2cc(O)ccc2c1C(=O)c1cc(Br)c(O)c(Br)c1 [6-hydroxybenzbromarone] | 30 |  |  |  |  | 
> 150 | > 150 | > 150 |  | COc1ccc(CC(=O)c2ccc(O)cc2O)cc1 [Compound 1h] |  |  |  |  |  | 
71.4 |  |  |  | CCCCc1oc2ccccc2c1C(=O)c1ccc(O)cc1 [Compound 1b] |  | attenuated HUVEC cell motility | significantly inhibited cell migration | effective only at the highest concentrations tested (7.5 μM) | shorter sprouts and significantly lower microvascular density | reduced the number of intersegmental vessels, but were less potent
> 150 | > 150 | > 150 |  | CC(=O)c1c(C)oc2ccc(O)cc12 [Compound 1g] |  |  |  |  |  | 
> 150 | > 150 | > 150 |  | CC(=O)c1cc(Br)c(O)c(Br)c1O [Compound 1i] |  |  |  |  |  | 
102 | > 150 | > 150 |  | COc1ccc(OC)c(C(=O)c2coc3ccc(O)cc23)c1 [Compound 1f] |  |  |  |  |  | 
> 150 | > 150 | > 150 |  | COc1ccc(C(=O)c2coc3ccc(O)cc23)cc1 [Compound 1e] |  |  |  |  |  | 
11.8 | > 150 | > 150 | preferentially inhibited PTP1B | O=C(c1cc2ccccc2o1)c1coc2ccc(O)cc12 [Compound 1c] |  |  | had no effect on cell motility |  | negligible effect | no effect on the vasculature
> 150 | > 150 | > 150 |  | CCCCC(=O)c1ccc(O)cc1 [Compound 1j] |  |  |  |  |  | 
> 150 | > 150 | > 150 |  | O=C(c1ccc(F)cc1)c1coc2ccc(O)cc12 [Compound 1d] |  |  |  |  |  | 
